Assay results from ChEMBL document CHEMBL3351535, “Identification of novel phenyl butenonyl C-glycosides with ureidyl and sulfonamidyl moieties as antimalarial agents” (ACS Med Chem Lett, 2014).

Legend:
[1] = Cytotoxicity against african green monkey Vero cells after 2 days by resazurin assay; assay type: cell-based; details: chlorocebus sabaeus
Plasmodium falciparum [2] = assay: Antimalarial activity against Plasmodium falciparum 3D7 after 72 hrs by SYBR Green fluorescence assay; assay type: functional, organism-based; details: 3D7, 72 h
Plasmodium falciparum [3] = assay: Antimalarial activity against Plasmodium falciparum K1 after 72 hrs by SYBR Green fluorescence assay; assay type: functional, organism-based; details: K1, 72 h
[4] = Systemic clearance in Sprague-Dawley rat at 5 mg/kg, iv; assay type: ADME, organism-based; design: dose 5 mg/kg, route intravenous; details: in vivo
[5] = Terminal elimination half-life in Sprague-Dawley rat at 5 mg/kg, iv; assay type: ADME, organism-based; design: dose 5 mg/kg, route intravenous; details: in vivo, read-out: beta t1/2 (converted)
[6] = Volume of distribution in Sprague-Dawley rat at 5 mg/kg, iv; assay type: ADME, organism-based; design: dose 5 mg/kg, route intravenous; details: in vivo
Heme = assay: Inhibition of heme polymerization in Plasmodium yoelii nigeriensis infected erythrocytes (unknown origin) extract at 100 uM after 4 hrs by spectrophotometry

`O=C(/C=C/c1ccc(NC(=S)Nc2ccccc2)cc1)C[C@@H]1O[C@H](CO)[C@@H](O)[C@H](O)[C@H]1O` showed a CC50 at 48 h [1] of 274 µM, an IC50 (Plasmodium falciparum [2]) of 11.8 µM and an IC50 (Plasmodium falciparum [3]) of 13.8 µM.
`COc1cc([N+](=O)[O-])ccc1NC(=S)Nc1cccc(/C=C/C(=O)C[C@@H]2O[C@H](CO)[C@@H](O)[C@H](O)[C@H]2O)c1` showed a CC50 at 48 h [1] of 203 µM, an IC50 (Plasmodium falciparum [2]) of 3.35 µM and an IC50 (Plasmodium falciparum [3]) of 2.47 µM.
In the case of `O=C(Nc1ccccc1)Nc1ccccc1`, the CC50 at 48 h [1] is reported as 352 µM, the IC50 (Plasmodium falciparum [2]) is reported as 13.8 µM and the IC50 (Plasmodium falciparum [3]) is reported as greater than 20 µM.
Compound `O=C(/C=C/c1cccc(NC(=S)Nc2ccccc2)c1)C[C@@H]1O[C@H](CO)[C@@H](O)[C@H](O)[C@@H]1O` has a CC50 at 48 h [1] of 336 µM, an IC50 (Plasmodium falciparum [2]) of 13.1 µM and an IC50 (Plasmodium falciparum [3]) of 17.8 µM.
In the case of `COc1ccc(NC(=O)Nc2cccc(/C=C/C(=O)C[C@@H]3O[C@H](CO)[C@@H](O)[C@H](O)[C@H]3O)c2)c([N+](=O)[O-])c1`, the CC50 at 48 h [1] is reported as 709 µM, the IC50 (Plasmodium falciparum [2]) is reported as 0.56 µM and the IC50 (Plasmodium falciparum [3]) is reported as 1.58 µM. For the same compound, the clearance [4] was 17 mL/min/kg, the half-life [5] was 7.1 h and the Vd [6] was 2.8 L/kg.
For `CCOC(=O)/C=C/c1cccc(NS(=O)(=O)c2ccc(C)cc2)c1`, the CC50 at 48 h [1] was 77.1 µM, the IC50 (Plasmodium falciparum [2]) was 16.1 µM and the IC50 (Plasmodium falciparum [3]) was 16.1 µM.
For `O=C(/C=C/c1cccc(NC(=O)Nc2ccccc2)c1)C[C@@H]1O[C@H](CO)[C@@H](O)[C@H](O)[C@@H]1O`, the IC50 (Plasmodium falciparum [2]) was 20 µM and the IC50 (Plasmodium falciparum [3]) was 20 µM.
With `CC(=O)OC[C@H]1O[C@@H](CC(=O)/C=C/c2ccc(NC(=O)Nc3ccc4ccccc4c3)cc2)[C@H](OC(C)=O)[C@@H](OC(C)=O)[C@@H]1OC(C)=O` the CC50 at 48 h [1] was 482 µM, the IC50 (Plasmodium falciparum [2]) was 2.18 µM and the IC50 (Plasmodium falciparum [3]) was 5.36 µM.
For `O=C(/C=C/c1cccc(NC(=S)Nc2ccccc2)c1)C[C@@H]1OC[C@@H](O)[C@H](O)[C@H]1O`, the CC50 at 48 h [1] was 289 µM, the IC50 (Plasmodium falciparum [2]) was 6.89 µM and the IC50 (Plasmodium falciparum [3]) was 8.69 µM.
Compound `O=C(/C=C/c1cccc(NC(=O)Nc2ccccc2)c1)C[C@@H]1O[C@H](CO)[C@@H](O)[C@H](O)[C@H]1O` has a CC50 at 48 h [1] of 373 µM, an IC50 (Plasmodium falciparum [2]) of 3.77 µM and an IC50 (Plasmodium falciparum [3]) of 3.39 µM.
`Cc1ccc(S(=O)(=O)Nc2cccc(/C=C/C(=O)C[C@@H]3O[C@H](CO)[C@@H](O)[C@H](O)[C@@H]3O)c2)cc1` showed a CC50 at 48 h [1] of 417 µM, an IC50 (Plasmodium falciparum [2]) of 3.89 µM and an IC50 (Plasmodium falciparum [3]) of 5.11 µM.
`CCN(CC)CCCC(C)Nc1ccnc2cc(Cl)ccc12` (centres undefined) [CHLOROQUINE] gave a CC50 at 48 h [1] of 685 µM.
For `Cc1ccc(S(=O)(=O)Nc2ccccc2)cc1`, the CC50 at 48 h [1] was 221 µM, the IC50 (Plasmodium falciparum [2]) was greater than 20 µM and the IC50 (Plasmodium falciparum [3]) was greater than 20 µM.
With `O=C(/C=C/c1cccc(NC(=O)Nc2ccccc2)c1)C[C@@H]1OC[C@@H](O)[C@H](O)[C@H]1O` the CC50 at 48 h [1] was 309 µM, the IC50 (Plasmodium falciparum [2]) was 3.44 µM and the IC50 (Plasmodium falciparum [3]) was 5.43 µM.
Work on `COc1ccc(NC(=O)Nc2ccccc2)c([N+](=O)[O-])c1` yielded a CC50 at 48 h [1] of 356 µM, an IC50 (Plasmodium falciparum [2]) greater than 20 µM and an IC50 (Plasmodium falciparum [3]) of 18 µM.
`CC(=O)OC[C@H]1O[C@@H](CC(=O)/C=C/c2cccc(NS(=O)(=O)c3ccc(C)cc3)c2)[C@H](OC(C)=O)[C@@H](OC(C)=O)[C@@H]1OC(C)=O` showed a CC50 at 48 h [1] of 584 µM, an IC50 (Plasmodium falciparum [2]) of 1.14 µM and an IC50 (Plasmodium falciparum [3]) of 2.17 µM.
For `CC(=O)OC[C@H]1O[C@@H](CC(=O)/C=C/c2ccc(NC(=S)Nc3ccccc3)cc2)[C@H](OC(C)=O)[C@@H](OC(C)=O)[C@@H]1OC(C)=O`, the CC50 at 48 h [1] was 663 µM, the IC50 (Plasmodium falciparum [2]) was 1.83 µM and the IC50 (Plasmodium falciparum [3]) was 2.3 µM.
In the case of `CC(=O)O[C@@H]1[C@@H](OC(C)=O)[C@H](OC(C)=O)CO[C@H]1CC(=O)/C=C/c1cccc(NC(=S)Nc2ccccc2)c1`, the CC50 at 48 h [1] is reported as 58.7 µM, the IC50 (Plasmodium falciparum [2]) is reported as 4.2 µM and the IC50 (Plasmodium falciparum [3]) is reported as 5.57 µM.
`CC(=O)O[C@@H]1[C@@H](OC(C)=O)[C@H](OC(C)=O)CO[C@H]1CC(=O)/C=C/c1cccc(NS(=O)(=O)c2ccc(C)cc2)c1` gave a CC50 at 48 h [1] of 268 µM, an IC50 (Plasmodium falciparum [2]) of 1.39 µM and an IC50 (Plasmodium falciparum [3]) of 3 µM.
With `O=C(/C=C/c1ccc(NC(=O)Nc2ccccc2)cc1)C[C@@H]1O[C@H](CO)[C@@H](O)[C@H](O)[C@H]1O` the CC50 at 48 h [1] was 1130 µM, the IC50 (Plasmodium falciparum [2]) was 7.51 µM and the IC50 (Plasmodium falciparum [3]) was 7.66 µM.
For `CC(=O)OC[C@H]1O[C@@H](CC(=O)/C=C/c2cccc(NS(=O)(=O)c3ccc(C)cc3)c2)[C@@H](OC(C)=O)[C@@H](OC(C)=O)[C@@H]1OC(C)=O`, the CC50 at 48 h [1] was 123 µM, the IC50 (Plasmodium falciparum [2]) was 3.96 µM and the IC50 (Plasmodium falciparum [3]) was 5.19 µM.
`Cc1ccc(S(=O)(=O)Nc2cccc(/C=C/C(=O)C[C@@H]3OC[C@@H](O)[C@H](O)[C@H]3O)c2)cc1` showed a CC50 at 48 h [1] of 94.7 µM, an IC50 (Plasmodium falciparum [2]) of 2.93 µM and an IC50 (Plasmodium falciparum [3]) of 6.35 µM.
Work on `CC(=O)OC[C@H]1O[C@@H](CC(=O)/C=C/c2cccc(NC(=S)Nc3ccccc3)c2)[C@H](OC(C)=O)[C@@H](OC(C)=O)[C@@H]1OC(C)=O` yielded a CC50 at 48 h [1] of 337 µM, an IC50 (Plasmodium falciparum [2]) of 1.91 µM and an IC50 (Plasmodium falciparum [3]) of 4.48 µM.
In the case of `CC(=O)OC[C@H]1O[C@@H](CC(=O)/C=C/c2cccc(NC(=S)Nc3ccccc3)c2)[C@@H](OC(C)=O)[C@@H](OC(C)=O)[C@@H]1OC(C)=O`, the CC50 at 48 h [1] is reported as 65.1 µM, the IC50 (Plasmodium falciparum [2]) is reported as 3.73 µM and the IC50 (Plasmodium falciparum [3]) is reported as 2.87 µM.
Work on `CC(=O)OC[C@H]1O[C@@H](CC(=O)/C=C/c2ccc(NC(=O)Nc3ccccc3)cc2)[C@H](OC(C)=O)[C@@H](OC(C)=O)[C@@H]1OC(C)=O` yielded a CC50 at 48 h [1] of 820 µM, an IC50 (Plasmodium falciparum [2]) of 5.27 µM and an IC50 (Plasmodium falciparum [3]) of 5.55 µM.
With `CCOC(=O)/C=C/c1cccc(NC(=O)Nc2ccccc2)c1` the CC50 at 48 h [1] was 293 µM, the IC50 (Plasmodium falciparum [2]) was 8.8 µM and the IC50 (Plasmodium falciparum [3]) was 13.4 µM.
With `O=C(/C=C/c1ccc(NC(=O)Nc2ccc3ccccc3c2)cc1)C[C@@H]1O[C@H](CO)[C@@H](O)[C@H](O)[C@H]1O` the CC50 at 48 h [1] was 1020 µM, the IC50 (Plasmodium falciparum [2]) was 5.91 µM and the IC50 (Plasmodium falciparum [3]) was 5.28 µM.
Compound `CC(=O)O[C@@H]1[C@@H](OC(C)=O)[C@H](OC(C)=O)CO[C@H]1CC(=O)/C=C/c1cccc(NC(=O)Nc2ccccc2)c1` has a CC50 at 48 h [1] of 102 µM, an inhibition (Heme) of 76.9% and an IC50 (Plasmodium falciparum [2]) of 3.17 µM. It also gave an IC50 (Plasmodium falciparum [3]) of 4.92 µM.
`COc1cc([N+](=O)[O-])ccc1NC(=S)Nc1cccc(/C=C/C(=O)C[C@@H]2O[C@H](COC(C)=O)[C@@H](OC(C)=O)[C@H](OC(C)=O)[C@H]2OC(C)=O)c1` gave a CC50 at 48 h [1] of 559 µM, an inhibition (Heme) of 72.1% and an IC50 (Plasmodium falciparum [2]) of 0.55 µM. It also gave an IC50 (Plasmodium falciparum [3]) of 0.42 µM.
Compound `COc1ccc(NC(=O)Nc2cccc(/C=C/C(=O)C[C@@H]3O[C@H](COC(C)=O)[C@@H](OC(C)=O)[C@H](OC(C)=O)[C@H]3OC(C)=O)c2)c([N+](=O)[O-])c1` has a CC50 at 48 h [1] of 730 µM, an inhibition (Heme) of 92.7% and an IC50 (Plasmodium falciparum [2]) of 0.94 µM. For the same compound, the IC50 (Plasmodium falciparum [3]) was 4.23 µM.
Work on `CC(=O)OC[C@H]1O[C@@H](CC(=O)/C=C/c2cccc(NC(=O)Nc3ccccc3)c2)[C@H](OC(C)=O)[C@@H](OC(C)=O)[C@@H]1OC(C)=O` yielded a CC50 at 48 h [1] of 180 µM, an inhibition (Heme) of 72.5% and an IC50 (Plasmodium falciparum [2]) of 2.29 µM. The IC50 (Plasmodium falciparum [3]) was 2.4 µM.
Compound `O=C(/C=C/c1cccc(NC(=S)Nc2ccccc2)c1)C[C@@H]1O[C@H](CO)[C@@H](O)[C@H](O)[C@H]1O` has a CC50 at 48 h [1] of 371 µM, an IC50 (Plasmodium falciparum [2]) of 9.43 µM and an IC50 (Plasmodium falciparum [3]) of 7.2 µM.
For `Cc1ccc(S(=O)(=O)Nc2cccc(/C=C/C(=O)C[C@@H]3O[C@H](CO)[C@@H](O)[C@H](O)[C@H]3O)c2)cc1`, the CC50 at 48 h [1] was 381 µM, the IC50 (Plasmodium falciparum [2]) was 2.2 µM and the IC50 (Plasmodium falciparum [3]) was 3.87 µM.
In the case of `CC(=O)OC[C@H]1O[C@@H](CC(=O)/C=C/c2cccc(NC(=O)Nc3ccccc3)c2)[C@@H](OC(C)=O)[C@@H](OC(C)=O)[C@@H]1OC(C)=O`, the CC50 at 48 h [1] is reported as 102 µM, the IC50 (Plasmodium falciparum [2]) is reported as 6.65 µM and the IC50 (Plasmodium falciparum [3]) is reported as 7.81 µM.
For `CCOC(=O)/C=C/c1cccc(NC(=S)Nc2ccccc2)c1`, the CC50 at 48 h [1] was 279 µM, the IC50 (Plasmodium falciparum [2]) was greater than 20 µM and the IC50 (Plasmodium falciparum [3]) was greater than 20 µM.
